# From patent US5338726A, “Endothelin converting enzyme inhibitors” (Abbott Laboratories, priority 1992, dated 1994)
# Non-standard residues stand in square brackets, D forms with d. Residues, ends and D or L forms follow the SMILES beside them. *: point of attachment. Sta = CC(C)C[C@H](N)[C@@H](O)CC(=O)O; Isovaleryl = CC(C)CC(=O)*
# System: solubilized endothelin converting enzyme (P3 from rat lung)
# Assay: Endothelin converting enzyme activity of solubilized enzyme with protease inhibitors
# Format: biochemical
# Details: at 40 mM; solubilized ECE (P3 from rat lung)
# Description: (§1) Rat lung plasma membranes were prepared and assayed for endothelin converting enzyme activity as previously described (Biochem. Biophys. Res. Commun. 171 1291 (1990)).
# The enzyme has an apparent molecular mass of 90 KD as estimated by SDS-PAGE or gel filtration and appears to be a single peptide protein. […] The enzyme may exist as isozymes with pIs at 6.2 and 6.3. […] The endothelin converting enzyme activity in active Mono Q fractions was inhibited by pepstatin A with an IC50 of 5 nM. The-endothelin converting enzyme activity of solubilized endothelin converting enzyme (P3 from rat lung) is not inhibited at 40 mM by TLCK, aprotinin, PMSF, E-64, bestatin, phosphoramidon or thiorphan. The endothelin converting enzyme activity of active Mono Q fractions was stimulated by divalent metal cations in the order of Mn^+2 ≥Zn^+2 >Ca^+2 >Mg^+2 ≥Ba^+2 =Co^+2.
row,inhibition of endothelin converting enzyme activity,Compound
1,not inhibited,aprotinin
2,not inhibited,CC(C)C[C@H](NP(=O)(O)O[C@@H]1O[C@@H](C)[C@H](O)[C@@H](O)[C@H]1O)C(=O)N[C@@H](Cc1c[nH]c2ccccc12)C(=O)O [phosphoramidon]
3,not inhibited,CC(C)C[C@H](NC(=O)[C@@H](O)[C@H](N)Cc1ccccc1)C(=O)O [bestatin]
4,not inhibited,"CC(C)C[C@H](NC(=O)[C@H]1O[C@@H]1C(=O)O)C(=O)NCCCCN=C(N)N [Example E-64, E-64]"

row,Compound,inhibition of endothelin converting enzyme activity
1,O=S(=O)(F)Cc1ccccc1 [PMSF],not inhibited
2,Cc1ccc(S(=O)(=O)NC(CCCCN)C(=O)CCl)cc1 (centres unmarked) [TLCK],not inhibited
3,O=C(O)CNC(=O)C(CS)Cc1ccccc1 (centres unmarked) [thiorphan],not inhibited

# Biological target: endothelin converting enzyme (active Mono Q fractions of rat lung plasma membranes)
# Assay: Endothelin converting enzyme activity in active Mono Q fractions
# Format: biochemical
# Details: read-out: IC50 for inhibition of endothelin converting enzyme activity
# Description: as §1
# Rat lung plasma membranes (400 mg) were solubilized by stirring at 4° C. for 45 minutes in 50 ml of 20 mM Tris-HCl, pH 7.7 containing 2 mM dithiothreitol and 46 mM NOG (Buffer C). The unsolubilized materials were removed by centrifugation at 60,000×g for 30 minutes. Solubilized materials were injected onto a Mono Q HR 10/10 column (Pharmacia) and eluted with concentration gradients of 0-1M NaCl in 240 ml of Buffer C at 4 ml/minute. (Endothelin converting enzyme active fractions were eluted from 0.07 to 0.14 M NaCl). Absorbance at 280 nm was monitored by a LKB 2150 UVICORD SD monitor. Fractions were analyzed for endothelin converting enzyme activity and by SDS-PAGE. Protein content was determined by the Bio-Rad Protein Assay kit.
# The enzyme has an apparent molecular mass of 90 KD as estimated by SDS-PAGE or gel filtration and appears to be a single peptide protein. […] The enzyme may exist as isozymes with pIs at 6.2 and 6.3. […] The endothelin converting enzyme activity in active Mono Q fractions was inhibited by pepstatin A with an IC50 of 5 nM. […]
row,IC50 [nM],Compound
1,5,CC(C)CC(=O)N[C@H](C(=O)N[C@H](C(=O)N[C@@H](CC(C)C)[C@@H](O)CC(=O)N[C@@H](C)C(=O)N[C@@H](CC(C)C)[C@@H](O)CC(=O)O)C(C)C)C(C)C [pepstatin A] (Isovaleryl-VV[Sta]A[Sta]-OH)
